The IC50 is the concentration that inhibits the measured activity by half. A lower IC50 goes with greater potency.

We go through 24 compounds from patent publication US20260176267A1, “PREPARATION OF IMIDAZOPYRIDINE AND IMIDAZOPYRIDAZINE DERIVATIVES AS NOVEL DIACYLGLYCERIDE O-ACYLTRANSFERASE 2 INHIBITORS” (Merck Sharp & Dohme LLC, priority 2022, published 2026).

The target of this assay is T1, human DGAT2 (hDGAT2) (Homo sapiens, UniProt Q96PD7).
T1 construct: made in house; host or cells: Sf-9 insect cells (baculovirus), membrane fraction
T1 sequence (Q96PD7 1-388): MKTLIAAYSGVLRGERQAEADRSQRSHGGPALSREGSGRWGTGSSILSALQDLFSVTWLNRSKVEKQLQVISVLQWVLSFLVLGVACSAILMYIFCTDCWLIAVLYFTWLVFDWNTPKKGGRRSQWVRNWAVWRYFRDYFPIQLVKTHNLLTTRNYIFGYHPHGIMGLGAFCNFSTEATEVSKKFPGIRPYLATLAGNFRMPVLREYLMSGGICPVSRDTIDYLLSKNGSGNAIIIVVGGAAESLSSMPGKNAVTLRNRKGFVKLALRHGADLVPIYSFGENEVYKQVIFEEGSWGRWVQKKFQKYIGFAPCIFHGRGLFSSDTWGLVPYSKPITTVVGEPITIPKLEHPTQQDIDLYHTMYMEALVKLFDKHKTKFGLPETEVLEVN
The assay is described as follows: DGAT2 Enzymatic Activity Assay. The format is biochemical. The conditions noted are these: membrane prep of Sf-9 cells expressing hDGAT2; 13C18-triolein product by LC/MS/MS; 25 μM diolein, 5 μM 13C oleoyl-CoA, rt. On the procedure:
Sf-9 insect cells were maintained in Grace's insect cell culture medium with 10% heated-inactivated fetal bovine serum, 1% Pluronic F-68 and 0.14 μg/ml Kanamycine sulfate at 27° C. in a shaker incubator. After infection with untagged baculovirus expressing human DGAT2 (hDGAT2) at multiplicity of infection (MOI) 3 for 48 hours, cells were harvested. Cell pellets were suspended in buffer containing 10 mM Tris-HCl pH 7.5, 1 mM EDTA, 250 mM sucrose and Complete Protease Inhibitor Cocktail (Sigma Aldrich), and sonicated on ice. Cell debris were removed by centrifugation at 2000×g for 15 minutes. Membrane fractions were isolated by ultracentrifugation (100,000×g), resuspended in the same buffer, and frozen (−80° C.) for later use. The protein concentration was determined with the Pierce™ BCA Protein Assay Kit (Thermo Fisher Scientific).
LC/MS/MS analyses were performed using Thermal Fisher's LX4-TSQ Vantage system. This system consists of an Agilent binary high-performance liquid chromatography (HPLC) pump and a TSQ Vantage triple quadrupole MS/MS instrument. For each sample, 2 μL samples from the top organic layer of in-plate liquid-liquid extraction were injected onto a Thermo Betabasic C4 column (2.1 mm×20 mm, 5 μm particle size). The samples were then eluted using the following conditions; mobile phase: Isopropanol:acetonitrile/10 mM ammonium formate=50/35/15 (v/v/v), flow rate: 0.8 mL/min, temperature: 25° C. Data was acquired in positive mode using a heated electrospray ionization (HESI) interface. The operational parameters for the TSQ Vantage MS/MS instrument were a spray voltage of 3000 V, capillary temperature of 280° C., vaporizer temperature 400° C., sheath gas 45 arbitrary unit. Aux gas 10 arbitrary units. […] The peak area was integrated by Xcalibur Quan software. The ratio between the ^13C18 triolein generated in the reaction and spiked in internal standard ^13C21-triolein was used to generate percentage inhibition and IC50 values. Compound percentage inhibition was calculated by the following formula: Inhibition %=1−[(compound response−low control)/(high control−low control)]×100%.
DGAT2 activity was determined by measuring the amount of enzymatic product ^13C18-triolein (^13C-1,2,3-Tri(cis-9-octadecenoyl)glycerol) using the membrane prep mentioned above. The assay was carried out in ABgene 384-well assay plates in a final volume of 25 μL at rt.

In turn, `CC1(NC(=O)c2cn3cc(Oc4ncc(Cl)cc4OCC(F)(F)F)ccc3n2)CS(=O)(=O)C1` [Example 1, 6-[[5-Chloro-3-(2,2,2-trifluoroethoxy)-2-pyridyl]oxy]-N-(3-methyl-1,1-dioxo-thietan-3-yl)imidazo[1,2-a]pyridine-2-carboxamide] yielded an IC50 of 5 nM. The compound `CCOc1cccnc1Oc1ccc2nc(C(=O)NC3(C)CCC(F)(F)CC3)cn2c1` [Example 3, N-(4,4-difluoro-1-methyl-cyclohexyl)-6-[(3-ethoxy-2-pyridyl)oxy]imidazo[1,2-a]pyridine-2-carboxamide] yielded an IC50 of 5.8 nM. Take `O=C(NC1(CC(F)(F)F)CCS(=O)(=O)CC1)c1cn2cc(Oc3ncc(Cl)cc3OCC(F)(F)F)ccc2n1` [Example 5, 6-[[5-chloro-3-(2,2,2-trifluoroethoxy)-2-pyridyl]oxy]-N-[1,1-dioxo-4-(2,2,2-trifluoroethyl)thian-4-yl]imidazo[1,2-a]pyridine-2-carboxamide]: the IC50 amounted to 36 nM.

`CC1(NC(=O)c2cn3cc(Oc4ncccc4OCC(F)(F)F)cc(F)c3n2)CCS(=O)(=O)CC1` [Example 7, 8-fluoro-N-(4-methyl-1,1-dioxo-thian-4-yl)-6-[[3-(2,2,2-trifluoroethoxy)-2-pyridyl]oxy]imidazo[1,2-a]pyridine-2-carboxamide] displayed an IC50 of 4.7 nM. With `CCOc1cc(Cl)cnc1Oc1ccc2nc(C(=O)NC3(C)CCS(=O)(=O)CC3)cn2c1C` [Example 8, 6-[(5-chloro-3-ethoxy-2-pyridyl)oxy]-5-methyl-N-(4-methyl-1,1-dioxo-thian-4-yl)imidazo[1,2-a]pyridine-2-carboxamide], the IC50 is 1.4 nM. In turn, `Cc1cc2nc(C(=O)NC3(C)CCS(=O)(=O)CC3)cn2cc1Oc1ncc(Cl)cc1OCC1(F)CC1` [Example 10, 6-[[5-chloro-3-[(1-fluorocyclopropyl)methoxy]-2-pyridyl]oxy]-7-methyl-N-(4-methyl-1,1-dioxo-thian-4-yl)imidazo[1,2-a]pyridine-2-carboxamide] had an IC50 of 13 nM. For the compound `CC1(NC(=O)c2cn3cc(Oc4ncc(Cl)cc4OCC(F)F)ccc3n2)CS(=O)(=O)C1` [Example 11, 6-[[5-chloro-3-(2,2-difluoroethoxy)-2-pyridyl]oxy]-N-(3-methyl-1,1-dioxo-thietan-3-yl)imidazo[1,2-a]pyridine-2-carboxamide], the IC50 worked out at 23 nM.

For `Cc1cc2nc(C(=O)NC3(CC(F)(F)F)CCS(=O)(=O)CC3)cn2cc1Oc1ncc(Cl)cc1OCC(F)(F)F` [Example 12, 6-[[5-chloro-3-(2,2,2-trifluoroethoxy)-2-pyridyl]oxy]-N-[1,1-dioxo-4-(2,2,2-trifluoroethyl)thian-4-yl]-7-methyl-imidazo[1,2-a]pyridine-2-carboxamide], the IC50 is 5.6 nM. For `CC1(NC(=O)c2cn3cc(Oc4ncc(Cl)cc4OCC(F)(F)F)c(Cl)cc3n2)CCS(=O)(=O)CC1` [Example 13, 7-chloro-6-[5-chloro-3-(2,2,2-trifluoroethoxy)pyridine-2-yl]oxy-N-(4-methyl-1,1-dioxo-thian-4-yl)imidazo[1,2-a]pyridine-2-carboxamide] the value was 4.3 nM; for `CC1(NC(=O)c2cn3cc(Oc4ncccc4OCC(F)(F)F)ccc3n2)CCS(=O)(=O)CC1` [Example 14, N-(4-methyl-1,1-dioxo-thian-4-yl)-6-[[3-(2,2,2-trifluoroethoxy)-2-pyridyl]oxy]imidazo[1,2-a]pyridine-2-carboxamide], 5.3 nM; for `Cc1c(Oc2ncc(Cl)cc2OCC(F)(F)F)cc(F)c2nc(C(=O)NC3(C)CCS(=O)(=O)CC3)cn12` [Example 15, 6-[[5-chloro-3-(2,2,2-trifluoroethoxy)-2-pyridyl]oxy]-8-fluoro-5-methyl-N-(4-methyl-1,1-dioxo-thian-4-yl)imidazo[1,2-a]pyridine-2-carboxamide], 11 nM. As for `O=C(N[C@H]1CCCC(F)(F)[C@@H]1O)c1cn2cc(Oc3ncc(F)cc3OCC(F)(F)F)ccc2n1` [Example 16, N-[(1S,2R)-3,3-difluoro-2-hydroxy-cyclohexyl]-6-[[5-fluoro-3-(2,2,2-trifluoroethoxy)-2-pyridyl]oxy]imidazo[1,2-a]pyridine-2-carboxamide], half-maximal inhibition (IC50) was put at 4.5 nM.

On to `Cc1c(Oc2ncc(Cl)cc2OCC(F)(F)F)ccc2nc(C(=O)NC3(C)CCS(=O)(=O)CC3)cn12` [Example 17], for which the IC50 was determined as 1.4 nM. `CC(F)(F)COc1cc(Cl)cnc1Oc1ccc2nc(C(=O)NC3(C)CCS(=O)(=O)CC3)cn2c1` [Example 18, 6-[[5-chloro-3-(2,2-difluoropropoxy)-2-pyridyl]oxy]-N-(4-methyl-1,1-dioxo-thian-4-yl)imidazo[1,2-a]pyridine-2-carboxamide] displayed an IC50 of 2 nM. In the case of `Cc1cc2nc(C(=O)NC3(C)CCS(=O)(=O)CC3)cn2cc1Oc1ncc(F)cc1OCC(C)(F)F` [Example 19, 6-[[3-(2,2-difluoropropoxy)-5-fluoro-2-pyridyl]oxy]-7-methyl-N-(4-methyl-1,1-dioxo-thian-4-yl)imidazo[1,2-a]pyridine-2-carboxamide], the IC50 came out at 7.7 nM.

Compound `Cc1cc2nc(C(=O)NC3(C)CCS(=O)(=O)CC3)cn2cc1Oc1nccnc1OCC(F)(F)F` [Example 20, 7-methyl-N-(4-methyl-1,1-dioxidotetrahydro-2H-thiopyran-4-yl)-6-((3-(2,2,2-trifluoroethoxy)pyrazin-2-yl)oxy)imidazo[1,2-a]pyridine-2-carboxamide] came in with an IC50 of 17.3 nM. The result for `CC1(NC(=O)c2cn3cc(Oc4ncc(F)cc4OCC(F)(F)F)c(F)cc3n2)CCS(=O)(=O)CC1` [Example 21, 7-fluoro-6-[[5-fluoro-3-(2,2,2-trifluoroethoxy)-2-pyridyl]oxy]-N-(4-methyl-1,1-dioxo-thian-4-yl)imidazo[1,2-a]pyridine-2-carboxamide] reads 1.8 nM; that for `CCOc1cccnc1Oc1ccc2nc(C(=O)N[C@H]3CCCC[C@@H]3O)cn2c1` [Example 22, 6-[(3-ethoxy-2-pyridyl)oxy]-N-[(1S,2S)-2-hydroxycyclohexyl]imidazo [1,2-a]pyridine-2-carboxamide], 3.5 nM. `CCOc1cccnc1Oc1ccc2nc(C(=O)NC3(C)CC(F)(F)C3)cn2c1` [Example 23, N-(3,3-difluoro-1-methyl-cyclobutyl)-6-[(3-ethoxy-2-pyridyl)oxy]imidazo[1,2-a]pyridine-2-carboxamide] came in with an IC50 of 31 nM. For `Cc1cc(Oc2ncccc2OCC(F)(F)F)cn2cc(C(=O)NC3(C)CCS(=O)(=O)CC3)nc12` [Example 24, 8-methyl-N-(4-methyl-1,1-dioxo-thian-4-yl)-6-[[3-(2,2,2-trifluoroethoxy)-2-pyridyl]oxy]imidazo[1,2-a]pyridine-2-carboxamide] the value was 117 nM; for `Cc1cc2nc(C(=O)NC3(C)CC(F)(F)C3)cn2cc1Oc1ncc(F)cc1OCC(F)F` [Example 25, 6-[[3-(2,2-difluoroethoxy)-5-fluoro-2-pyridyl]oxy]-N-(3,3-difluoro-1-methyl-cyclobutyl)-7-methyl-imidazo[1,2-a]pyridine-2-carboxamide], 3.8 nM.

As to `CCOc1cccnc1Oc1ccc2nc(C(=O)N[C@H]3CC[C@](OC)(C(F)(F)F)CC3)cn2c1` [Example 26, 6-[(3-ethoxy-2-pyridyl)oxy]-N-[4-methoxy-4-(trifluoromethyl)cyclohexyl] imidazo[1,2-a]pyridine-2-carboxamide], half-maximal inhibition (IC50) required 10 nM.

`Cc1c(Oc2ncc(F)cc2OCC(F)F)ccc2nc(C(=O)NC3(C)CC(F)(F)C3)cn12` [Example 28, 6-[[3-(2,2-difluoroethoxy)-5-fluoro-2-pyridyl]oxy]-N-(3,3-difluoro-1-methyl-cyclobutyl)-5-methyl-imidazo[1,2-a]pyridine-2-carboxamide]: 59 nM corresponded to half-maximal inhibition (IC50). In turn, `Cc1cc2nc(C(=O)NC3(C)CCS(=O)(=O)CC3)cn2cc1Oc1ncc(F)cc1OCC(F)(F)F` [Example 29, 6-[[5-fluoro-3-(2,2,2-trifluoroethoxy)-2-pyridyl]oxy]-7-methyl-N-(4-methyl-1,1-dioxo-thian-4-yl)imidazo[1,2-a]pyridine-2-carboxamide] showed an IC50 of 13 nM.
